# From article PMC11125126, “Synthesis, Characterisation, and In Vitro Evaluation of Biocompatibility, Antibacterial and Antitumor Activity of Imidazolium Ionic Liquids” (Pharmaceutics, 2024)
# Where two headings read alike, the source gives them in different places.
# Legend:
# [1] = test system: HDF cells; assay: Direct cytotoxicity test of IL powders, Alamar blue assay; assay type: cell-based, human; details: Homo sapiens, 24 h of incubation
# Method: (§1) Cytotoxicity studies on IL powders were carried out using human dermal fibroblast (HDF) cells (Sigma-Aldrich) and a human breast cancer cell line (MCF7). In addition, ILs loaded in PVC polymer substrates were tested for their cytocompatibility and adhesion properties on the HDF. HDF cells were cultured in 75 cm^2 cell culture flask in Dulbecco’s Modified Eagle’s Medium (DMEM) supplemented with 20% Foetal Bovine Serum (FBS), 1% non-essential amino acid (NEAA), antibiotic solution (streptomycin 100 µg/mL and penicillin 100 U/mL, Sigma Aldrich) and 2 mM L-glutamine. MCF7 cells were grown in DMEM with 10% FBS and the same antibiotics as mentioned above. The cells were maintained in a culture at 37 °C, with 5% CO2 and 95% humidity to achieve a confluent layer. Control cells were cultured in a complete medium without any compounds in tissue culture plates. Before biological testing, the samples were sterilised using a UV light for 2 h.
# (§2) A direct cytotoxicity test was used to assess the in vitro cytotoxicity of IL powders. IL powders with different alkyl chains were dissolved in DMEM media to obtain solutions at various concentrations (0.5–1–5 and 10 µg/mL) to determine the best formulation.
# (§3) After 24 h of incubation of IL solutions (200 µL) with seeded cells under specific environmental conditions (T = 37 °C, HR = 95%, CO2 = 5%), cell viability was tested using the Alamar blue assay (AbD Serotec, Milan, Italy) following the manufacturer’s instructions.
# (§4) In summary, each well received a 200 µL aliquot of Alamar Blue^TM diluted 1:10 in phenol red-free medium and was incubated for 4 h at 37 °C, 5% CO2. Following this, 100 µL of the solution was transferred to a 96-well plate for colorimetric analysis. Wells with no cells were included to account for any background interference from the redox indicator. Optical density was immediately measured using a spectrophotometer (Victor X3, Perkin Elmer, Waltham, MA, USA) at 560 and 595 nm wavelengths. The results were presented as a percentage of cell viability compared to that of the control (cells grown on tissue culture plates).
# (§5) Here, the antitumor activity and cytotoxicity of the synthetised imidazolium-based ionic liquids have been determined for breast cancer cells (MCF-7) and healthy human fibroblast (HDF) cells. […] Table 5 reports the IC50 values in µg/mL and µM to make their comparison with the literature data easy.
# [2] = test system: MCF7 cancer cells; assay: as above; assay type: cell-based, human; details: Homo sapiens, 24 h of incubation
# Method: as §1, §2, §3, §4, §5
# [3] = test system: Listeria monocytogenes; assay: MIC/MBC by broth dilution, pure ILs; assay type: cell-based; details: 24 h; for MBC: read-out: MBC; for MIC: read-out: MIC
# Excerpt: (§6) Within the Di3A (Dipartimento di Agricoltura, Alimentazione e Ambiente, University of Catania, Italy) microbial collection, two Gram-negative strains (Escherichia coli and Pseudomonas fluorescens) and one Gram-positive strain (Listeria monocytogenes) were studied in order to define the potential efficacy of ionic liquids in relation to the different structure of the bacterial cell wall.
# (§7) For the pure ILs, the minimal inhibitory concentration (MIC) and minimal bactericidal concentration (MBC) were determined in Nutrient Broth (NB, Oxoid, Basingstoke, UK) medium by broth dilution method, according to the Clinical and Laboratory Standards Institute (CLSI).
# (§8) All the bacterial strains were individually grown for 24 h at 35 or 27 °C for P. fluorescens, with shaking. After the incubation period, the cells were collected by centrifugation and re-suspended in sterile NB to obtain a stock culture of 10^9 CFU/mL.
# (§9) Tubes containing 5 mL of NB with decreasing concentrations of ILs (1000, 500, 250, 125, 50, 25, 12.5, 5 and 0 µg/mL) were inoculated with each bacterial stock culture at a final concentration of 10^6 CFU/mL.
# (§10) Tubes were incubated at 35 or 27 °C in an orbital shaker and evaluated for the viable count of E. coli, P. fluorescens, and L. monocytogenes after 24 h by spread-plating 100 µL of each suspension on Nutrient Agar (NA, Oxoid, Basingstoke, UK) incubated for 24–48 h at 35 or 27 °C.
# (§11) In this study, MIC and MBC are expressed in both µg/mL and µM to make the comparison with the literature data easy. Each experiment was performed in triplicate.
# [4] = test system: Escherichia coli; assay: MIC/MBC by broth dilution, pure ILs; assay type: cell-based; details: 24 h; for MBC: read-out: MBC; for MIC: read-out: MIC
# Excerpt: as §6, §7, §8, §9, §10, §11
# [5] = test system: HDF cells; assay: Indirect cytotoxic test (ISO 10993-5 elution) of IL-loaded PVC, Alamar blue; assay type: cell-based, human; details: IL loaded into the PVC matrix at 0.5 and 1 wt%; 24 h elution, 24 h exposure
# Method: Indirect test: ISO 10993-5, which provides test procedures to evaluate the in vitro cytotoxicity of medical devices, was employed to test biocompatibility. The elution test was conducted by incubating the material in a sterile DMEM solution (extraction vehicle prepared as described earlier) at a ratio of 0.1 g/1.0 mL at 37 °C (following ISO 10993-12 guidelines). After 24 h of elution time, the conditioned media (eluants) were collected, and 200 µL were pipetted into a 96-well plate previously seeded with HDF cells at 80% confluence. The plate was incubated for an additional 24 h (exposure time).
# Cell viability was assessed in both cases using the Alamar blue assay, as described earlier. Furthermore, immunofluorescence microscopy was utilised to examine cell-material interactions and their spread using a fluorescent dye. Specifically, HDF cells were labelled with CellTracker^TM Red CMTPX (Invitrogen, Milan, Italy) in a 75 cm^2 cell culture flask, trypsinised, and then seeded onto IL-loaded polymer substrates. The cells were then incubated for 24 h at 37 °C. […]
# To assess the possibility of developing substrates for use in various biomedical applications, from drug delivery to tissue engineering or as an antimicrobial coating, the biocompatibility of ionic-liquid-loaded polymeric substrates (ILs) was also evaluated using indirect and direct cytotoxicity assays. […]
# [6] = NI = no inhibition at IL maximum concentration used (1000 µM)
smiles,measurement,setting,value
CCCCCCCCCCn1cc[n+](C)c1.F[B-](F)(F)F [C10mimBF4],IC50,[1]; n = 3,13.5 µM
same,IC50,"[1]; n = 3, mean ± SD",4.18 ± 0.03 mg/L
same,IC50,[2]; n = 3,7.39 mg/L
same,IC50,"[2]; n = 3, mean ± SD",23.8 µM
same,MBC,[3]; 10^6 CFU/mL,155 mg/L
same,MIC,[3]; 10^6 CFU/mL,77.5 mg/L
same,MBC,[3]; [6],500 µM
same,MIC,[3]; [6],250 µM
same,MBC,[4]; 10^6 CFU/mL,155 mg/L
same,MIC,[4]; 10^6 CFU/mL,77.5 mg/L
same,MBC,[4]; [6],500 µM
same,MIC,[4]; [6],250 µM
same,"HDF cell viability, indirect cytotoxic test",[5],good cell survival
